Results published in patent US12263187B2, “Treatment of bone marrow pathologies with polysulfated polysaccharides” (PARADIGM BIOPHARMACEUTICALS LTD, priority 2017, dated 2025).
“Also recorded” adds a separate entry of the source.

Tests used:
[1] = system: Knee OA patients with Bone Marrow Edema Lesions; experiment: Example 1: PPS in knee OA patients with Bone Marrow Edema Lesions on MRI (TGA Special Access Scheme); assay type: in vivo, human; parameters: key to After PPS/BMEL: Severe: (>20 mm); Moderate: (5 mm to 20 mm); Minimal: (<5 mm); Absent; conditions: for After PPS/BMEL / After PPS/NRS Pain / After PPS/Lysholm Knee Score: 2 mg/kg IM 2x weekly for 3 weeks; for After PPS/NRS Pain / After PPS/Lysholm Knee Score: scored 2 to 4 weeks after last injection; for After PPS/NRS Pain: scale 0-10; for After PPS/Lysholm Knee Score: scale 0-100
Description: Example 1 is a study of the safety, tolerability and results of patients treated with PPS with Bone Marrow Edema Lesions of the knee and suffering from osteoarthritis under the TGA Special Access Scheme (B). (Approval to use PPS as treatment for the patient was acquired from Department of Health-Therapeutic Goods Administration, Australian Government under the Special Access Scheme (SAS) since the injectable form of PPS was not a registered product in Australia.)
Patients in the study had the following characteristics: • High pain scores • Poor joint function scores • MRI evidence of Bone Marrow Edema Lesions and joint effusions • Kellgren-Lawrence (3-4) OA subjects currently on waiting list for Total Knee Replacement • Failed standard of care including intraarticular injections of corticosteroids • The protocol featured the following: • Treatment: 2× weekly intramuscular injections of 2 mg/kg for 3 weeks (total of 6 injections) • All patients abstained from NSAIDs during PPS treatment • The treatment outcomes of pain and function were scored before and after PPS treatment 2 to 4 weeks after the last PPS injection • All patients had baseline subchondral BML.
Numerical Rating Scale (NRS) is an 11-point scale (0-10). A state of no pain is 0 and the worst pain imaginable is 10.
Lysholm Knee Score is a total score of 0-100 is calculated based on the results from the eight functional components of the Lysholm knee score scale: Limp (5 points), Support (5 points), Locking (15 points), Instability (25 points), Pain (25 points), Swelling (10 points), Stair climbing (10 points), and Squatting (5 points). The total score is assigned to rating categories as follows: 95-100 indicates excellent, 84-94 indicates good, 65-83 indicates fair and <65 indicates poor function.

[2] = system: person with knee osteoarthritis and subchondral bone marrow edema lesions; experiment: Example 2: case report of knee osteoarthritis with subchondral BML; assay type: in vivo, human
Experimental: The patient was administered a course of Pentosan Polysulphate Sodium (PPS) intramuscularly twice weekly for 3 weeks. […] These MRI interpretations corroborate improved clinical outcome measures ensuing therapeutic intervention with PPS.
A person with a history of arthroscopic partial medial meniscectomy presented with pain of the left knee and was on a waiting list for total knee replacement. […] The BML in the medial femoral condyle measured 11×7×12 mm (CC×transverse×AP) and the medial tibial plateau BML measured 8×8×8 mm (CC×transverse×AP). […] Following patient consent, the pain assessment score was determined by the Numerical Rating Scale (NRS) and functional capacity assessments included the Lysholm knee score. At pre-treatment, the NRS pain score was severe with a score of 8 out of 10 (range 0-10) and the Lysholm Knee score was 37 out of 100 reflecting poor knee function indicated by problems in stair climbing and limping.
Since PPS is a weak anticoagulant with 1/15 the activity of heparin, the patient was monitored for safety by assessments of complete blood count, APTT, prothrombin time, liver function tests, renal function tests and serum calcium prior to commencement of treatment and periodically during treatment with Pentosan Polysulphate Sodium. The clinical status of the patient was checked regularly throughout the course of the treatment and follow up period.
After evaluation, the patient was considered suitable for treatment with Pentosan Polysulphate Sodium (PPS) under the SAS. The patient was administered 2 mg/kg of PPS twice weekly with a minimum of three and a maximum of four days between dosages. Six intramuscular injections were administered into the gluteus maximus muscle over a three-week period (2 injections per week). Three follow-up appointments were made at 10, 24 and 38 days post-completion of injection regimen.

[3] = system: patient with chronic lower back pain with a Modic Type 1 pattern on MRI; experiment: Example 3: case report for chronic low back pain with Modic Type 1 pattern; assay type: in vivo, human; conditions: patient one
Experimental: Patient one, a person with chronic lower back pain with a Modic Type 1 pattern on MRI scan of the L3/L4 and L4 L5 region of the spine presented in the clinics with unresolved persistent pain despite current standard of care treatment with Mobic, an NSAID.
The baseline NRS pain score prior to treatment with PPS was a high score of 7. Patient was administered by subcutaneous injection a dose of 150 mg fixed dose of PPS twice weekly for 4 weeks (ie a total of 8 injections). […] During the course of the treatment the patient had abstained from any other therapeutic intervention.

[4] = system: BMEL; experiment: Further work: BMEL assessed by MRI after SC PPS twice-weekly for 6 weeks; assay type: in vivo; conditions: 2 mg/kg PPS or fixed dose of 150 mg, slow SC injection twice-weekly for 6 weeks
[5] = system: Modic Changes; experiment: Further work: Modic Changes assessed by MRI after SC PPS twice-weekly for 6 weeks; assay type: in vivo; conditions: 2 mg/kg PPS or fixed dose of 150 mg, slow SC injection twice-weekly for 6 weeks
[6] = system: Knee OA patients with Bone Marrow Edema Lesions; experiment: Example 1: PPS in knee OA patients with Bone Marrow Edema Lesions on MRI (TGA Special Access Scheme); assay type: in vivo, human; conditions: standard four week course of PPS
[7] = fraction of the activity of heparin; cited from earlier work

Pentosan Polysulphate Sodium [PPS]
After PPS/BMEL ([1]; patient four, before PPS: Moderate (5 mm to 20 mm)): Minimal ((<5 mm))
After PPS/NRS Pain ([1]; patient four, before PPS: 4): 1
After PPS/Lysholm Knee Score ([1]; patient four, before PPS: 73): 90
After PPS/BMEL ([1]; patient three, before PPS: Severe (>20 mm)): Moderate ((5 mm to 20 mm))
After PPS/NRS Pain ([1]; patient three, before PPS: 4): 0
After PPS/Lysholm Knee Score ([1]; patient three, before PPS: 54): 73
After PPS/BMEL ([1]; patient two, before PPS: Moderate (5 mm to 20 mm)): Absent
After PPS/NRS Pain ([1]; patient two, before PPS: 8): 0
After PPS/Lysholm Knee Score ([1]; patient two, before PPS: 37): 70
adverse events ([1]; patients with BMEL and osteoarthritis under TGA SAS(B), 2 mg/kg IM 2x weekly): no adverse events were reported
bone marrow oedema lesions at the medial femoral condyle and medial tibial plateau on MRI ([2]; 2 mg/kg IM twice weekly for 3 weeks (6 injections), MRI five weeks after first injection, pre-treatment BML 11x7x12 mm and 8x8x8 mm): resolution of medial compartment bone oedema; also recorded: complete resolution; also recorded: complete reduction
knee (joint) effusion on MRI ([2]; 2 mg/kg IM twice weekly for 3 weeks, axial imaging at level of suprapatellar pouch, five weeks after first injection): reduction in size of knee effusion; also recorded: complete resolution; also recorded: marked reduction; also recorded: reduction in the size
adverse events ([2]; 2 mg/kg IM twice weekly for 3 weeks, during treatment and follow up period): did not present with any drug-related or nondrug-related adverse response; also recorded: did not report any adverse effects; also recorded: no post-treatment adverse events
improvement of the Lysholm Knee score ([2]; 2 mg/kg IM twice weekly for 3 weeks, four weeks after the last injection, 37 to 65): 43%
Lysholm Knee score post-treatment ([2]; 2 mg/kg IM twice weekly for 3 weeks, four weeks after the last injection, scale 0-100, pre-treatment score 37): 65
NRS pain score post-treatment ([2]; 2 mg/kg IM twice weekly for 3 weeks, scale 0-10, pre-treatment score 8): 0
pain soon after the 4th injection ([3]; 150 mg fixed dose SC twice weekly): improvement in pain
adverse events ([3]; 150 mg fixed dose SC twice weekly for 4 weeks, during and after treatment): No adverse events
BMEL volume as assessed by magnetic resonance imaging [4]: consistent BMEL volume reduction
Modic Changes as assessed by magnetic resonance imaging [5]: consistent resolution
BMEL on MRI [6]: clearly visible BMEL reduction
pain and mobility scores [6]: improved
anticoagulant activity relative to heparin [7]: 1/15
